Where “and” joins values, the source holds several entries; their conditions need not be identical. Equal values may be shown once.
What was measured:
Oryctolagus sp. = settings: New Zealand
Rattus norvegicus [1] = settings: for LD50: acute
Rattus norvegicus [2] = experiment: LC50; settings: acute; oral; gavage
Canidae [3] = settings: chronic, Beagle
Mus musculus [4] = settings: oral, gavage
Rattus norvegicus [5] = settings: oral, gavage
Mus musculus [6] = experiment: LD100; higher = less toxic; settings: acute; oral; gavage; B6C3F1
Rattus norvegicus [7] = settings: reproduction developmental; inhalation; whole body; M/F; Crl:CD(SD); Hepatic, Urinary
Canidae [8] = settings: subchronic; duration: 13 weeks; oral; capsule; M/F; Dog Other; histopathologic liver
Rattus norvegicus [9] = experiment: LD10; higher = less toxic; settings: acute; inhalation
Sus scrofa = settings: repeat dose other; oral; diet; M/F; Not specified; Renal proximal tubule degeneration & interstitial nephropathy
[10] = reproduction developmental, duration: 12 days, oral, gavage, F
[11] = short-term, duration: 28 days, oral, diet, Sprague-Dawley
[12] = subchronic, duration: 90 days, oral, diet, Sprague-Dawley
[13] = reproduction developmental, duration: 13 weeks, B6C3F1, generation: F0
[14] = reproduction developmental, duration: 13 weeks, oral, gavage, Fischer 344, generation: F0
[15] = short-term, duration: 28 days, M, Sprague-Dawley, Clinical Observation: Salivation increase + Blood Chemistry: AST increase, T-Cho decrease, CRE increase, TP increase, ALB increase, GLUC …

## O=C1c2c(Br)c(Br)c(Br)c(Br)c2C(=O)N1CCN1C(=O)c2c(Br)c(Br)c(Br)c(Br)c2C1=O [1,2-Bis(tetrabromophthalimido)ethane]
Oryctolagus sp.; [10]
  LOAEL: < 1000 mg/kg-day
  NOAEL: ≥ 1000 mg/kg-day
Rattus norvegicus [1]; developmental, duration: 10 days, oral, gavage, Sprague-Dawley
  NOAEL: ≥ 1000 mg/kg-day
Rattus norvegicus [1]; reproduction developmental, duration: 10 days, oral, gavage, F, Sprague-Dawley
  NOAEL: ≥ 1000 mg/kg-day
Rattus norvegicus [1]; [11]
  LOAEL (% diet): > 1
  NOAEL (% diet): ≥ 1
Rattus norvegicus [1]; [12]
  LOAEL: ≥ 1000 mg/kg-day
  NOAEL: ≥ 1000 mg/kg-day
  NOAEL (% diet): 1
Rattus norvegicus [2]
  LD50: > 7500 mg/kg

## Clc1ccccc1 [Chlorobenzene]
Canidae [3]; duration: 6 months, inhalation
  NOAEL: 2.06 mg/L
Canidae [3]; duration: 93 days, oral
  NOAEL: 54.5 mg/kg-day
Mus musculus [4]; [13]
  LOAEL: 250 mg/kg-day
  NOAEL: 125 mg/kg-day
Oryctolagus sp.; acute, dermal
  LD50: > 7940 mg/kg
Oryctolagus sp.; reproduction developmental, duration: 13 days, inhalation, F
  NOAEL: 345 mg/m3
Oryctolagus sp.; reproduction developmental, duration: 13 days, inhalation, generation: F1
  NOAEL: 2720 mg/m3
Rattus norvegicus [1]; oral, Sprague-Dawley
  LD50: 1540 mg/kg
Rattus norvegicus [1]; oral, gavage, Fischer 344
  LD50: ≥ 2000 mg/kg and ≤ 4000 mg/kg
Rattus norvegicus [1]; [14]
  LOAEL: 250 mg/kg-day
  NOAEL: 125 mg/kg-day
Rattus norvegicus [1]; reproduction developmental, inhalation, Sprague-Dawley, generation: F0
  NOAEL: 230 mg/m3
Rattus norvegicus [1]; reproduction developmental, inhalation, Sprague-Dawley, generation: F1
  NOAEL: 2070 mg/m3
Rattus norvegicus [1]; reproduction developmental, inhalation, Sprague-Dawley, generation: F2
  NOAEL: 2070 mg/m3
Rattus norvegicus [5]; subchronic, duration: 13 weeks, M/F, Fischer 344, Deaths + Body Weight Changes: decrease + Urinalysis: Volume increase, Coproporphyrin increase + Blood Chemistry: Cho increase, TG decrease, …
  NOEL: < 60 mg/kg-day
Mus musculus [6]
  LD100: 1000 mg/kg
Rattus norvegicus [7]
  NOAEL: 230 mg/m3
Canidae [8]
  LOAEL: 54.5 mg/kg-day
  NOAEL: 27.2 mg/kg-day

## C=C1CC(=O)O1 [Diketene]
Mus musculus [4]; acute
  LD50: ≥ 800 mg/kg and ≤ 1600 mg/kg
Rattus norvegicus [1]; oral, gavage
  LD50: ≥ 400 mg/kg and ≤ 800 mg/kg
Rattus norvegicus [9]
  LD10: 1270 mg/m3 and ≥ 1190 mg/m3 and ≤ 1410 mg/m3

## C[C@@H]1Cc2c(Cl)cc(C(=O)N[C@@H](Cc3ccccc3)C(=O)O)c(O)c2C(=O)O1 [Ochratoxin A]
Rattus norvegicus [5]; [15]
  NOAEL: < 0.2 mg/kg-day
  NOEL: < 0.2 mg/kg-day
Rattus norvegicus [5]; subchronic, duration: 13 weeks, M/F, Fischer 344, Body Weight Changes: decrease + Relative Organ Weight: Right kidney decrease + Histopathology: Kidney-Karyomegaly Kidney-Atrophy Kidney/…
  NOEL: < 0.0625 mg/kg-day
Sus scrofa
  LOEL: 0.008 mg/kg-day

— EPA's ToxValDB 9.5
